Earlier results, collected in PMC10649572 (International Journal of Molecular Sciences, 2023).
No end group written: not given here.

Molecular target: T1, CaM^WT (Homo sapiens, UniProt P0DP23)
T1 construct: made in house; host or cells: Escherichia coli BL21-CodonPlus(DE3)
Details: in the presence and absence of Ca^2+; ref [38]

Sequence: LMRMLSLKSLKKQMKKV [Peptide F]
- interaction with CaM: significant affinity
